According to patent US20070135515A1, “Method for producing sorbicillactone a” (priority 2004, published 2007):

Legend:
[1] = system: L5178Y-mouse lymphoma cells (ATCC CRL 1722); experiment: Apoptosis detection (Cell Death Detection ELISA plus); format: cell-based; conditions: for MW ± SD (OD) / % of the control (negative): 4 hours incubation; for MW ± SD (OD): 405 nm; for % of the control (negative): negative control = 100%
Procedure: Material: RPMI1640-medium, Hepes buffered, was obtained from Sigma-Aldrich (Taufkirchen, Germany), foetal calf serum (FCS) from Gibco (Karlsruhe, Germany), and Cell Death Detection ELISA plus from Roche (Mannheim, Germany, Cat. No. 1774425). Sorbicillactone A of the batch: 2208/2a was used.
Incubation and preparation of the cells: The L5178Y-mouse lymphoma cells (ATCC CRL 1722)) were counted, and adjusted to a number of cells of 10^4 cells/mL. The sorbicillactone-A- and dihydrosorbicillactone-A-stock solution (10 mg/mL in DMSO) was diluted with medium (RPMI/Hepes with 10% FCS) to concentrations of 60, 20, and 6 μg/mL. In a 96-well-culture plate, 100 μl cell suspension (˜10^3 cells) were each pipetted to each of the 100 μl of the different dihydrosorbicillactone-A- and sorbicillactone-A-solutions. RPMI1640-medium without dihydrosorbicillactone and sorbicillactone A was used as a negative control. The final concentrations were 30, 10, and 3 μg/mL sorbicillactone A and dihydrosorbicillactone A. Four parallel settings of each sample were analysed. The cells were incubated for 4 hours at 37° C. After the incubation, the culture plate was centrifuged at […] (˜1200 rpm) for 10 min at room temperature. The supernatant was carefully pipetted off, and the cells were each overlayered with 200 μl lysis-buffer (Roche-Kit). Then, the cells were lysed for 30 min at room temperature. After the lysis, the culture plate was again centrifuged at 200×g (˜1200 rpm) for 10 min at room temperature.
ELISA: Two strips with eight wells each were taken from the streptavidin-ELISA-plate of the Roche-kit. 20 μl of the supernatant of a cell-lysis (see above) were added into each well. In doing so, the samples with 30 or 10 μg/mL of sorbicillactone A and dihydrosorbicillactone A were loaded as 4-fold, and all other as duplicate determinations. In addition to these sample, a positive control (DNA-histone-complex) was loaded. Then, 80 μl of immune reagent were added into each well. This solution consisted of incubation buffer, anti-histone-biotin, and anti-DNA-peroxidase. The incubation buffer was used as a blank value. The ELISA-plate was incubated for 2 hours in a shaking incubator at room temperature. Them the supernatants were carefully removed, and the wells were each washed 3× with 250 μl of the incubation buffer. After the washing, 100 μl of ABTS-solution were added into each “well”. Subsequently, the cells were incubated for 30 min in the dark at room temperature. The measurement took place in a multiscan at an emission wavelength of 405 nm.

[2] = system: L5178Y mouse-lymphoma cells (ATCC CRL 1722); experiment: Genotoxicity: Fast Microassay (strand scission factors, PicoGreen); format: cell-based
Procedure: Material: PicoGreen was obtained from Molecular Probes (Leiden, The Netherlands), RPMI1640-medium from Sigma-Aldrich (Taufkirchen, Germany), foetal calf serum (FKS) from Gibco (Karlsruhe, Germany), and black microtitre-plates (96-well-plates) from Nunc (Wiesbaden, Germany). Sorbicillactone A of the batch: 2208/2a was used.
Cells: The genotoxicity of sorbicillactone A was tested on L5178Y mouse-lymphoma cells (ATCC CRL 1722). As described (Müller et al., 1979, Cancer Res. 39:1102-1107), the cells were cultured in RPMI1640-medium supplemented with 10% foetal calf serum (FCS). 10^4 cells/mL were chosen as the inoculum concentration. The cells were incubated for 4 and 24 hours with 1, 3, 10, and 30 μg/mL of sorbicillactone A (1). Following the incubation, the cells were examined with the “Fast Microassay”.
“Fast Microassay”: The method was performed according to a modified method (Batel et al., 1999, Anal. Biochem., 270:195-200). The cells were washed with 1×PBS for two times. After centrifugation, the pellet was taken up in 1×PBS and diluted to […]. 25 μl each of the cell suspension (about 2.5×10^4 cells per well) were pre-pipetted into black microtitre-plates (96-well-plates, Nunc, Wiesbaden). 25 μl 1×PBS were in the controls. Then, 25 μl of lysis solution (7 M urea, 0.1% (w/v) SDS, 0.2 M EDTA, pH=10.0) with PicoGreen (20 μl conc. PicoGreen per 1 mL of lysis solution) were pipetted into the microtitre-plate. Subsequently, the cells were lysed for 40 min in the dark at room temperature. After the incubation, the denaturation (unwinding) of the DNA occurs by the addition of freshly prepared alkaline solution. This is produced in that 20 mL 20 mM of EDTA, and 32 mL of 20 mM EDTA/100 mM NaOH are adjusted to a pH-value of 12.3. The measurement took place immediately in a fluoroscan at an excitation wavelength of 485 nm, and an emission wavelength of 520 nm, every 3 to 5 min, 20 min in total. The results were given as “strand scission factors” (SSF), and calculated following a time of denaturation (time of unwinding) of 20 min according to the following equation: SSF=log (% dsDNA-sample/% dsDNA-control).

C/C=C/C=C/C(O)=C1/C(=O)C(C)=C(O)[C@@]2(C)OC(=O)[C@@](C)(NC(=O)/C=C/C(=O)O)[C@@H]12 [sorbicillactone A]
MW ± SD (OD) ([1]; 3 μg/mL): 0.062 ± 0.004 OD | % of the control (negative) ([1]; 3 μg/mL): 91.2% | increase of apoptosis-cells ([1]; 3 μg/mL, 4 hours of incubation): did not result in an increase of apoptosis-cells | MW ± SD (OD) ([1]; 10 μg/mL): 0.193 ± 0.010 OD | % of the control (negative) ([1]; 10 μg/mL): 283.8% | MW ± SD (OD) ([1]; 30 μg/mL): 0.219 ± 0.024 OD | % of the control (negative) ([1]; 30 μg/mL): 322.1% | induction of apoptosis ([1]; 10 and 30 μg/mL, 4 hours of incubation): induces apoptosis | induction of DNA-strand scissions ([2]; 30 μg/mL, 24 hours of incubation): induced DNA-strand scissions | effect on the SSF-values (strand scission factors) ([2]; 1, 3, 10, and 30 μg/mL, 4 hours of incubation, FIG. 3A): nearly no effect | increase of the SSF-values ([2]; 1 to 10 μg/mL, 24 hours): slight, but no significant, increase | increase of the SSF-values (portion of DNA-strand scissions) ([2]; 3 and 30 μg/mL, 24 hours, p<0.001, FIG. 3B): significant increase
